Laboratory results reported in patent US8779156B2, “Analogues for the treatment or prevention of flavivirus infections” (Vertex Pharmaceuticals Incorporated, priority 2010, dated 2014).

Test system: HCV (1b) replicon, Huh-ET cells
Test: Cell-based luciferase reporter HCV (1b) RNA replication assay
Settings: Hepatitis C virus, 96 h; HCV 1b replicon, luciferase, 4 days incubation; read-out: EC50_1b
Text: Cell-Based Luciferase Reporter HCV (Ib) RNA Replication Assay Cell Culture
Replicon cell lines Huh-5.2 are derived from the Huh-7 hepatocarcinoma cell line are maintained in culture as generally described in Krieger, N; Lohmann, V; Bartenschlager, R. Enhancement of hepatitis C virus RNA replication by cell culture-adaptive mutations. J. Virol. 2001, 75, 4614-4624. The Huh-5.2 cells contain the highly cell culture-adapted replicon I389luc-ubi-neo/NS3-375.1 construct that carries, in addition to the neomycin gene, an integrated copy to the firefly luciferase gene (Krieger, N; Lohmann, V; Bartenschlager, R. Enhancement of hepatitis C virus RNA replication by cell culture-adaptive mutations. J. Virol. 2001, 75, 4614-4624). This cell line allows measurement of HCV RNA replication and translation by measuring luciferase activity. It has been previously shown that the luciferase activity tightly follows the replicon RNA level in these cells (Krieger, N; Lohmann, V; Bartenschlager, R. Enhancement of hepatitis C virus RNA replication by cell culture-adaptive mutations. J. Virol. 2001, 75, 4614-4624). The Huh-ET cell line has the same features as those mentioned for Huh-5.2 cell line, except that ET cells are more robust and contain an adaptative mutation in the HCV NS4B gene instead of NS5A. Both cell lines are maintained in cultures at a sub-confluent level (<85%) as the level of replicon RNA is highest in actively proliferating cells. The culture media used for cell passaging consist of DMEM (Gibco BRL Laboratories, Mississauga, ON, Canada) supplemented with 10% foetal bovine serum with 1% penicilin/streptomycin, 1% glutamine, 1% sodium pyruvate, 1% non-essential amino acids, and 180 μg/ml of G418 final concentration. Cells are incubated at 37° C., in an atmosphere of 5% CO2 and passaged twice a week to maintain sub-confluence.
Approximately 3000 viable Huh-ET cells (100 μl) are plated per well in a white opaque 96-well microtiter plate. The cell culture media used for the assay is the same as described above except that it contains no G418 and no phenol red. After an incubation period of 3-4 hours at 37° C. in a 5% CO2 incubator, compounds (100 μl) are added at various concentrations. Cells are then further incubated for 4 days at 37° C. in a 5% CO2 incubator. Thereafter, the culture media is removed and cells are lysed by the addition of 95 μL of the luciferase buffer (luciferin substrate in buffered detergent). Cell lysates are incubated at room temperature and protected from direct light for at least 10 minutes. Plates are read for luciferase counts using a luminometer (Wallac MicroBeta Trilux, Perkin Elmer™, MA, USA).
Curves are fitted to data points using nonlinear regression analysis, and IC50s are interpolated from the resulting curve using GraphPad Prism software, version 2.0 (GraphPad Software Inc., San Diego, Calif., USA).

Row | SMILES | EC50 [nM]
1 | COC(=O)N(C)C(C(=O)N1C[C@@H](C)C[C@H]1c1nc(-c2ccc(C#Cc3ccc4[nH]c([C@@H]5C[C@H](C)CN5C(=O)C(C(C)C)N(C)C(=O)OC)nc4c3)cc2)c[nH]1)C(C)C (stereo in doubt) [Compound 10, Methyl N-[(1S)-1-[(2S,4S)-2-[4-[4-[2-[2-[(2S,4S)-1-[(2S)-2-[methoxycarbonyl-(methyl)amino]-3-methyl-butanoyl]-4-methyl-pyrrolidin-2-yl]-1H-benzimidazol-5-yl]ethynyl]phenyl]-1H-imidazol-2-yl]-4-methyl-pyrrolidine-1-carbonyl]-2-methyl-propyl]-N-methyl-carbamate] | ≤ 5
2 | O=C(OCc1ccccc1)N1CCCC1c1ncc(-c2ccc(C#Cc3ccc4[nH]c(C5CCCCN5C(=O)OCc5ccccc5)nc4c3)cc2)[nH]1 (stereo not shown) [Compound 1] | 5 to 5000
3 | O=C(OCc1ccccc1)N1CCC[C@H]1c1ncc(-c2ccc(C#Cc3ccc4[nH]c([C@@H]5CCCN5C(=O)OCc5ccccc5)nc4c3)cc2)[nH]1 [Compound 2] | 5 to 5000
4 | COC(=O)N[C@H](C(=O)N1CCC[C@H]1c1nc(-c2ccc(-c3ccc4[nH]c([C@@H]5CCCN5C(=O)[C@@H](NC(=O)OC)C(C)C)nc4c3)cc2)c[nH]1)C(C)C [Compound 3, Methyl N-[(1S)-1-[(2S)-2-[4-[4-[2-[(2S)-1-[(2S)-2-(methoxycarbonylamino)-3-methyl-butanoyl]pyrrolidin-2-yl]-1H-benzimidazol-5-yl]phenyl]-1H-imidazol-2-yl]pyrrolidine-1-carbonyl]-2-methyl-propyl]carbamate] | ≤ 5
5 | COC(=O)N(C)[C@H](C(=O)N1C[C@@H](C)C[C@H]1c1ncc(-c2ccc(-c3ccc(-c4ccc5[nH]c([C@@H]6C[C@H](C)CN6C(=O)[C@H](C(C)C)N(C)C(=O)OC)nc5c4)cc3)cc2)[nH]1)C(C)C [Compound 6, Methyl N-[(1S)-1-[(2S,4S)-2-[4-[4-[4-[2-[(2S,4S)-1-[(2S)-2-[methoxycarbonyl(methyl)amino]-3-methyl-butanoyl]-4-methyl-pyrrolidin-2-yl]-1H-benzimidazol-5-yl]phenyl]phenyl]-1H-imidazol-2-yl]-4-methyl-pyrrolidine-1-carbonyl]-2-methyl-propyl]-N-methyl-carbamate] | ≤ 5
6 | COC(=O)N[C@H](C(=O)N1C[C@@H](C)C[C@H]1c1ncc(-c2ccc(-c3ccc(-c4ccc5[nH]c([C@@H]6C[C@H](C)CN6C(=O)[C@H](C(C)C)N(C)C(=O)OC)nc5c4)cc3)cc2)[nH]1)C(C)C [Compound 7, ((S)-1-{(2S,4S)-2-[5-(4′-{2-[(2S,4S)-1-((S)-2-Methoxycarbonylamino-3-methyl-butyryl)-4-methyl-pyrrolidin-2-yl]-1H-imidazol-4-yl}-biphenyl-4-yl)-1H-benzoimidazol-2-yl]-4-methyl-pyrrolidine-1-carbonyl}-2-methyl-propyl)-methyl-carbamic acid methyl ester] | ≤ 5
7 | COC(=O)N[C@H](C(=O)N1C[C@@H](C)C[C@H]1c1nc2cc(-c3ccc(-c4ccc(-c5cnc([C@@H]6C[C@H](C)CN6C(=O)[C@H](C(C)C)N(C)C(=O)OC)[nH]5)cc4)cc3)ccc2[nH]1)C(C)C [Compound 8, Methyl ((S)-1-((2S,4S)-2-(4-(4′-(2-((2S,4S)-1-((S)-2-((methoxycarbonyl)amino)-3-methylbutanoyl)-4-methylpyrrolidin-2-yl)-3H-benzo[d]imidazol-6-yl)-[1,1′-biphenyl]-4-yl)-1H-imidazol-2-yl)-4-methylpyrrolidin-1-yl)-3-methyl-1-oxobutan-2-yl)(methyl)carbamate] | ≤ 5
8 | COC(=O)N[C@H](C(=O)N1C[C@@H](C)C[C@H]1c1nc(-c2ccc(C#Cc3ccc4[nH]c([C@@H]5C[C@H](C)CN5C(=O)[C@@H](NC(=O)OC)C(C)C)nc4c3)cc2)c[nH]1)C(C)C [Compound 9, Methyl N-[(1S)-1-[(2S,4S)-2-[4-[4-[2-[2-[(2S,4S)-1-[(2S)-2-(methoxycarbonylamino)-3-methyl-butanoyl]-4-methyl-pyrrolidin-2-yl]-1H-benzimidazol-5-yl]ethynyl]phenyl]-1H-imidazol-2-yl]-4-methyl-pyrrolidine-1-carbonyl]-2-methyl-propyl]carbamate] | ≤ 5
9 | COC(=O)N[C@H](C(=O)N1C[C@@H](C)C[C@H]1c1nc(C#Cc2ccc(-c3ccc4[nH]c([C@@H]5C[C@H](C)CN5C(=O)[C@@H](NC(=O)OC)C(C)C)nc4c3)cc2)c[nH]1)C(C)C [Compound 12, Methyl N-[(1S)-1-[(2S,4S)-2-[4-[2-[4-[2-[(2S,4S)-1-[(2S)-2-(methoxycarbonylamino)-3-methyl-butanoyl]-4-methyl-pyrrolidin-2-yl]-1H-benzimidazol-5-yl]phenyl]ethynyl]-1H-imidazol-2-yl]-4-methyl-pyrrolidine-1-carbonyl]-2-methyl-propyl]carbamate] | ≤ 5
10 | COC(=O)N[C@H](C(=O)N1C[C@@H](C)C[C@H]1c1ncc(-c2csc(-c3ccc(-c4ccc5[nH]c([C@@H]6C[C@H](C)CN6C(=O)[C@@H](NC(=O)OC)C(C)C)nc5c4)cc3)c2)[nH]1)C(C)C [Compound 14] | ≤ 5
11 | COC(=O)N[C@H](C(=O)N1C[C@@H](C)C[C@H]1c1nc(C)c(-c2ccc(-c3ccc(-c4ccc5[nH]c([C@@H]6C[C@H](C)CN6C(=O)[C@@H](NC(=O)OC)C(C)C)nc5c4)cc3)cc2)[nH]1)C(C)C [Compound 15, Methyl N-[(1S)-1-[(2S,4S)-2-[5-[4-[4-[2-[(2S,4S)-1-[(2S)-2-(methoxycarbonylamino)-3-methyl-butanoyl]-4-methyl-pyrrolidin-2-yl]-1H-benzimidazol-5-yl]phenyl]phenyl]-4-methyl-1H-imidazol-2-yl]-4-methyl-pyrrolidine-1-carbonyl]-2-methyl-propyl]carbamate] | ≤ 5
12 | COC(=O)N[C@H](C(=O)N1C[C@@H](C)C[C@H]1c1nc(-c2cc3sc(-c4ccc5[nH]c([C@@H]6C[C@H](C)CN6C(=O)[C@@H](NC(=O)OC)C(C)C)nc5c4)cc3s2)c[nH]1)C(C)C [Compound 16, Methyl N-[(1S)-1-[(2S,4S)-2-[4-[5-[2-[(2S,4S)-1-[(2S)-2-(methoxycarbonylamino)-3-methyl-butanoyl]-4-methyl-pyrrolidin-2-yl]-1H-benzimidazol-5-yl]thieno[3,2-b]thiophen-2-yl]-1H-imidazol-2-yl]-4-methyl-pyrrolidine-1-carbonyl]-2-methyl-propyl]carbamate] | ≤ 5
13 | CC[C@H]1C[C@@H](c2nc(-c3ccc(-c4ccc(-c5ccc6[nH]c([C@@H]7C[C@H](CC)CN7C(=O)[C@@H](NC(=O)OC)C(C)C)nc6c5)cc4)cc3)c[nH]2)N(C(=O)[C@@H](NC(=O)OC)C(C)C)C1 [Compound 17] | ≤ 5
14 | COC(=O)N[C@H](C(=O)N1C[C@@H](C)C[C@H]1c1nc(-c2cc3sc(-c4ccc5[nH]c([C@@H]6C[C@H](C)CN6C(=O)[C@@H](NC(=O)OC)C(C)C)nc5c4)cc3s2)c(C)[nH]1)C(C)C [Compound 19] | ≤ 5
15 | COC(=O)N[C@H](C(=O)N1C[C@@H](C)C[C@H]1c1nc(-c2ccc3cc(-c4ccc5[nH]c([C@@H]6C[C@H](C)CN6C(=O)[C@@H](NC(=O)OC)C(C)C)nc5c4)ccc3c2)c[nH]1)C(C)C [Compound 20] | ≤ 5
16 | COC(=O)N[C@H](C(=O)N1CC(C)(C)C[C@H]1c1nc(-c2ccc(-c3ccc(-c4ccc5[nH]c([C@@H]6CC(C)(C)CN6C(=O)[C@@H](NC(=O)OC)C(C)C)nc5c4)cc3)cc2)c[nH]1)C(C)C [Compound 23] | ≤ 5
